Blank lines part the entries; values can stand above or below the compound they belong to.
Test system: 695427-040-R-J1-PDC complex spheroid viability
Test: Anticancer human tumor 695427-040-R-J1-PDC patient-derived colon adenocarcinoma cell line growth inhibition [RAS]
Details: for IC50: curve of first compound; for viability, T/C: stronger effect = lower value
How it was run: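 Agents were tested in combination matrices in half-log decrements from a top concentration at or near clinical Cmax (10 microM if undetermined). Targets were multi-cell spheroids of tumour lines plus HUVEC and MSC stromal cells.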
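Further: viability read after seven days of drug exposure.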
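Wherever viability, T/C is given: 100% = DMSO vehicle control viability.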

IC50 (second compound 0.00316 µM): > 10000 nM
IC50 (second compound 0.01 µM): > 10000 nM
IC50 (second compound 0.0316 µM): > 10000 nM
IC50 (second compound 0.1 µM): > 10000 nM
IC50 (second compound 0.316 µM): > 10000 nM
IC50 (second compound 1 µM): 9770 nM
Structure (SMILES): Cc1nc(N2CCC3(CC2)COC(C)C3N)c(CO)nc1Sc1ccnc(N)c1Cl (stereo unspecified) + C=CC(=O)N1CCN(c2nc(OCC3CCCN3C)nc3c(F)c(-c4nc(N)cc(C)c4C(F)(F)F)c(Cl)cc23)C(C)C1
viability, T/C (second compound 0.00316 µM, first compound 0.0316 µM): 87%
viability, T/C (second compound 0.00316 µM, first compound 0.1 µM): 80.8%
viability, T/C (second compound 0.00316 µM, first compound 0.316 µM): 70.6%
viability, T/C (second compound 0.00316 µM, first compound 1 µM): 71%
viability, T/C (second compound 0.00316 µM, first compound 3.16 µM): 64.5%
viability, T/C (second compound 0.00316 µM, first compound 10 µM): 59.6%
viability, T/C (second compound 0.01 µM, first compound 0.0316 µM): 91.6%
viability, T/C (second compound 0.01 µM, first compound 0.1 µM): 78.9%
viability, T/C (second compound 0.01 µM, first compound 0.316 µM): 71.9%
viability, T/C (second compound 0.01 µM, first compound 1 µM): 68.7%
viability, T/C (second compound 0.01 µM, first compound 3.16 µM): 64.5%
viability, T/C (second compound 0.01 µM, first compound 10 µM): 51.9%
viability, T/C (second compound 0.0316 µM, first compound 0.0316 µM): 88.8%
viability, T/C (second compound 0.0316 µM, first compound 0.1 µM): 79%
viability, T/C (second compound 0.0316 µM, first compound 0.316 µM): 71.8%
viability, T/C (second compound 0.0316 µM, first compound 1 µM): 67.6%
viability, T/C (second compound 0.0316 µM, first compound 3.16 µM): 63%
viability, T/C (second compound 0.0316 µM, first compound 10 µM): 54.9%
viability, T/C (second compound 0.1 µM, first compound 0.0316 µM): 85.1%
viability, T/C (second compound 0.1 µM, first compound 0.1 µM): 78.7%
viability, T/C (second compound 0.1 µM, first compound 0.316 µM): 78.6%
viability, T/C (second compound 0.1 µM, first compound 1 µM): 67.5%
viability, T/C (second compound 0.1 µM, first compound 3.16 µM): 65.2%
viability, T/C (second compound 0.1 µM, first compound 10 µM): 57.7%
viability, T/C (second compound 0.316 µM, first compound 0.0316 µM): 81.1%
viability, T/C (second compound 0.316 µM, first compound 0.1 µM): 81.4%
viability, T/C (second compound 0.316 µM, first compound 0.316 µM): 75.4%
viability, T/C (second compound 0.316 µM, first compound 1 µM): 68.6%
viability, T/C (second compound 0.316 µM, first compound 3.16 µM): 65.3%
viability, T/C (second compound 0.316 µM, first compound 10 µM): 55.4%
viability, T/C (second compound 1 µM, first compound 0.0316 µM): 86.8%
viability, T/C (second compound 1 µM, first compound 0.1 µM): 80.3%
viability, T/C (second compound 1 µM, first compound 0.316 µM): 68.6%
viability, T/C (second compound 1 µM, first compound 1 µM): 59.9%
viability, T/C (second compound 1 µM, first compound 3.16 µM): 60.5%
viability, T/C (second compound 1 µM, first compound 10 µM): 47.5%

IC50 (second compound 0.000949 µM): 554 nM
IC50 (second compound 0.003 µM): 571 nM
IC50 (second compound 0.00949 µM): 453 nM
IC50 (second compound 0.03 µM): 600 nM
IC50 (second compound 0.0949 µM): 525 nM
IC50 (second compound 0.3 µM): 287 nM
Structure (SMILES): C=CC(=O)Nc1cc(Nc2nccc(-c3cn(C)c4ccccc34)n2)c(OC)cc1N(C)CCN(C)C + CCn1c(-c2cccnc2C(C)OC)c2c3cc(ccc31)N1CCOC(CC(NC(=O)C(C(C)C)N(C)C(=O)C3(F)CCN(C(=O)C#CC(C)(C)N(C)C)CC3)C(=O)N3CCCC(N3)C(=O)OCC(C)(C)C2)C1
viability, T/C (second compound 0.000949 µM, first compound 0.00316 µM): 85.2%
viability, T/C (second compound 0.000949 µM, first compound 0.01 µM): 80.6%
viability, T/C (second compound 0.000949 µM, first compound 0.0316 µM): 73.5%
viability, T/C (second compound 0.000949 µM, first compound 0.1 µM): 100%
viability, T/C (second compound 0.000949 µM, first compound 0.316 µM): 60.9%
viability, T/C (second compound 0.000949 µM, first compound 1 µM): 38.5%
viability, T/C (second compound 0.003 µM, first compound 0.00316 µM): 91.3%
viability, T/C (second compound 0.003 µM, first compound 0.01 µM): 83.4%
viability, T/C (second compound 0.003 µM, first compound 0.0316 µM): 95.2%
viability, T/C (second compound 0.003 µM, first compound 0.1 µM): 114%
viability, T/C (second compound 0.003 µM, first compound 0.316 µM): 59.7%
viability, T/C (second compound 0.003 µM, first compound 1 µM): 40.8%
viability, T/C (second compound 0.00949 µM, first compound 0.00316 µM): 94.1%
viability, T/C (second compound 0.00949 µM, first compound 0.01 µM): 70.7%
viability, T/C (second compound 0.00949 µM, first compound 0.0316 µM): 87.6%
viability, T/C (second compound 0.00949 µM, first compound 0.1 µM): 82.2%
viability, T/C (second compound 0.00949 µM, first compound 0.316 µM): 56.3%
viability, T/C (second compound 0.00949 µM, first compound 1 µM): 36.1%
viability, T/C (second compound 0.03 µM, first compound 0.00316 µM): 80.9%
viability, T/C (second compound 0.03 µM, first compound 0.01 µM): 88%
viability, T/C (second compound 0.03 µM, first compound 0.0316 µM): 84.5%
viability, T/C (second compound 0.03 µM, first compound 0.1 µM): 73%
viability, T/C (second compound 0.03 µM, first compound 0.316 µM): 60.6%
viability, T/C (second compound 0.03 µM, first compound 1 µM): 42.1%
viability, T/C (second compound 0.0949 µM, first compound 0.00316 µM): 106%
viability, T/C (second compound 0.0949 µM, first compound 0.01 µM): 83.3%
viability, T/C (second compound 0.0949 µM, first compound 0.0316 µM): 84.5%
viability, T/C (second compound 0.0949 µM, first compound 0.1 µM): 80.2%
viability, T/C (second compound 0.0949 µM, first compound 0.316 µM): 67.7%
viability, T/C (second compound 0.0949 µM, first compound 1 µM): 31.5%
viability, T/C (second compound 0.3 µM, first compound 0.00316 µM): 74.5%
viability, T/C (second compound 0.3 µM, first compound 0.01 µM): 74.9%
viability, T/C (second compound 0.3 µM, first compound 0.0316 µM): 85.7%
viability, T/C (second compound 0.3 µM, first compound 0.1 µM): 52.8%
viability, T/C (second compound 0.3 µM, first compound 0.316 µM): 54.2%
viability, T/C (second compound 0.3 µM, first compound 1 µM): 32.3%

IC50 (second compound 0.00316 µM): > 300 nM
IC50 (second compound 0.01 µM): > 300 nM
IC50 (second compound 0.0316 µM): > 300 nM
IC50 (second compound 0.1 µM): > 300 nM
IC50 (second compound 0.316 µM): > 300 nM
IC50 (second compound 1 µM): > 300 nM
Structure (SMILES): CC1(C)CCC(Nc2ncc(C(F)(F)F)c(-c3c[nH]c4c(P(C)(C)=O)c(C#N)ccc34)n2)CN1 (stereo unspecified) + C=CC(=O)N1CCN(c2nc(OCC3CCCN3C)nc3c(F)c(-c4nc(N)cc(C)c4C(F)(F)F)c(Cl)cc23)C(C)C1
viability, T/C (second compound 0.00316 µM, first compound 0.000949 µM): 116%
viability, T/C (second compound 0.00316 µM, first compound 0.003 µM): 107%
viability, T/C (second compound 0.00316 µM, first compound 0.00949 µM): 90.6%
viability, T/C (second compound 0.00316 µM, first compound 0.03 µM): 86.5%
viability, T/C (second compound 0.00316 µM, first compound 0.0949 µM): 84.6%
viability, T/C (second compound 0.00316 µM, first compound 0.3 µM): 79.2%
viability, T/C (second compound 0.01 µM, first compound 0.000949 µM): 95.8%
viability, T/C (second compound 0.01 µM, first compound 0.003 µM): 93.3%
viability, T/C (second compound 0.01 µM, first compound 0.00949 µM): 88.4%
viability, T/C (second compound 0.01 µM, first compound 0.03 µM): 78.8%
viability, T/C (second compound 0.01 µM, first compound 0.0949 µM): 82.9%
viability, T/C (second compound 0.01 µM, first compound 0.3 µM): 84.9%
viability, T/C (second compound 0.0316 µM, first compound 0.000949 µM): 108%
viability, T/C (second compound 0.0316 µM, first compound 0.003 µM): 89.9%
viability, T/C (second compound 0.0316 µM, first compound 0.00949 µM): 96.2%
viability, T/C (second compound 0.0316 µM, first compound 0.03 µM): 75.7%
viability, T/C (second compound 0.0316 µM, first compound 0.0949 µM): 86.9%
viability, T/C (second compound 0.0316 µM, first compound 0.3 µM): 77.4%
viability, T/C (second compound 0.1 µM, first compound 0.000949 µM): 89.5%
viability, T/C (second compound 0.1 µM, first compound 0.003 µM): 95.4%
viability, T/C (second compound 0.1 µM, first compound 0.00949 µM): 101%
viability, T/C (second compound 0.1 µM, first compound 0.03 µM): 84.7%
viability, T/C (second compound 0.1 µM, first compound 0.0949 µM): 88%
viability, T/C (second compound 0.1 µM, first compound 0.3 µM): 78.4%
viability, T/C (second compound 0.316 µM, first compound 0.000949 µM): 99%
viability, T/C (second compound 0.316 µM, first compound 0.003 µM): 94%
viability, T/C (second compound 0.316 µM, first compound 0.00949 µM): 96.3%
viability, T/C (second compound 0.316 µM, first compound 0.03 µM): 83.8%
viability, T/C (second compound 0.316 µM, first compound 0.0949 µM): 83.9%
viability, T/C (second compound 0.316 µM, first compound 0.3 µM): 81.1%
viability, T/C (second compound 1 µM, first compound 0.000949 µM): 90.2%
viability, T/C (second compound 1 µM, first compound 0.003 µM): 87.3%
viability, T/C (second compound 1 µM, first compound 0.00949 µM): 96.3%
viability, T/C (second compound 1 µM, first compound 0.03 µM): 78.6%
viability, T/C (second compound 1 µM, first compound 0.0949 µM): 88.9%
viability, T/C (second compound 1 µM, first compound 0.3 µM): 79.2%

Reference: PubChem BioAssay AID2060888 (Molecular Pharmacology Branch, DTP, NCI, 2025)
